Patent US20230265151A1, “GIP/GLP1 CO-AGONIST COMPOUNDS” (priority 2020, published 2023)
Where two headings read alike, the source gives them in different places.

Assays:
[1] = biological target: T1, human GIP receptor (hGIPR) (Homo sapiens, UniProt P48546); experiment: [125I]-GIP binding, SPA with membranes of CHO cells expressing hGIPR
T1 construct: expressed in transfected cells; crude membranes
T1 sequence (P48546 22-466): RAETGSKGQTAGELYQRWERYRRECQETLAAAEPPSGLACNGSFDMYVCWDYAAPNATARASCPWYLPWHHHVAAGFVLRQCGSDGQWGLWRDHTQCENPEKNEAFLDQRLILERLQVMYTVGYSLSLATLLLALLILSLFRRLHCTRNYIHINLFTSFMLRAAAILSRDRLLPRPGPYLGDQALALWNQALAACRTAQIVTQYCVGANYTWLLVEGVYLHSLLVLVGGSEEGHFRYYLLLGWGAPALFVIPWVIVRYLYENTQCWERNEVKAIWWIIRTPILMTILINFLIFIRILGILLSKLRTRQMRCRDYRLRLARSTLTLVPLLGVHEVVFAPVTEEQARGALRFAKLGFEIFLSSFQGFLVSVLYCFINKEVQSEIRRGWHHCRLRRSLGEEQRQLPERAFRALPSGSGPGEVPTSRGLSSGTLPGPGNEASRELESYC
Procedure: Two methods are used for the preparation of crude cell membranes.
Method 1: Frozen cell pellets are lysed on ice in hypotonic buffer containing 50 mM Tris HCl, pH 7.5, and Roche Complete™ Protease Inhibitors with EDTA. […] The homogenate is centrifuged at 4° C. at 1100 × g for 10 minutes. The supernatant is collected and stored on ice while the pellets are resuspended in homogenization buffer and rehomogenized as described above. The homogenate is centrifuged at 1100 × g for 10 minutes. The second supernatant is combined with the first supernatant and centrifuged at 35000 × g for 1 hour at 4° C. The resulting membrane pellet is resuspended in homogenization buffer containing protease inhibitors at approximately 1 to 3 mg/mL, quick frozen in liquid nitrogen and stored as aliquots in a -80° C. freezer until use.
The homogenate is centrifuged at 4° C. at 1800 × g for 15 minutes. The supernatant is collected and stored on ice while the pellets are resuspended in homogenization buffer (without DNAse I) and rehomogenized as described above. The homogenate is centrifuged at 1800 × g for 15 minutes. The second supernatant is combined with the first supernatant and centrifuged an additional time at 1800 × g for 15 minutes. The overall supernatant is then centrifuged at 25000 × g for 30 minutes at 4° C. The resulting membrane pellet is resuspended in homogenization buffer (without DNAse I) containing protease inhibitors at approximately 1 to 3 mg/mL and stored as aliquots in a -80° C. freezer until use.
The binding buffer contains 25 mM HEPES, pH 7.4, 2.5 mM CaCl2, 1 mM MgCl2, 0.1% (w/v) bacitracin, 0.003% (w/v) TWEEN®-20, and Roche Complete™ Protease Inhibitors without EDTA. Peptides and GIP are thawed and 3 fold serially diluted in 100% DMSO (10 point concentration response curves). […] Plates are sealed and mixed on a plate shaker (setting 6) for 1 minute and read with a PerkinElmer Trilux MicroBeta® scintillation counter after 2.5 to 12 hours of incubation/settling time at room temperature.
Raw CPM data for concentration curves of peptides, Gcg, GLP-1, or GIP are converted to percent inhibition by subtracting nonspecific binding (binding in the presence of excess unlabeled Gcg, GLP-1, or GIP, respectively) from the individual CPM values and dividing by the total binding signal, also corrected by subtracting nonspecific binding. Data are analyzed using four-parameter (curve maximum, curve minimum, IC50, Hill slope) nonlinear regression routines (Genedata Screener, version 12.0.4, Genedata AG, Basal, Switzerland). […] Values for Ki are reported as the geometric mean, with error expressed as the standard error of the mean (SEM) and n is equal to the number of independent replicates (determined in assays performed on different days). Geometric Means are calculated as follows: […]
The Ki Ratio (Ki for native control peptide/Ki for test compound) at each receptor and each species is calculated. The Ki Ratio is a rapid indication of the apparent affinity of a peptide compared to the native control peptide.
n=⅟x means that only one value out of the total number of replicates (x) is used to express the mean. SEM is only calculated when n=2 or greater non-qualified results exist. Means are expressed as GeoMetric means with the standard error of the mean (SEM) and the number of replicates (n) indicated in parenthesis.

[2] = biological target: T2, hGIPR (Homo sapiens, UniProt P48546); experiment: Functional cAMP formation (HTRF) in HEK-293 clonal cells expressing hGIPR, 0.1% bovine casein, without or with 1.0% human serum albumin; type: cell-based; conditions: for EC50: geometric mean
T2 construct: expressed in transfected cells
T2 sequence (P48546 22-466): T1 sequence (P48546 22-466)
Method in brief: (§1)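 Cells were stimulated with peptide for 30 min at 37° C, then lysed in buffer carrying cAMP-d2 and anti-cAMP Eu3+-cryptate for a competitive HTRF read after at least 60 min at room temperature. The 665/620 nm ratio was converted to nM cAMP against a standard curve.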

[3] = biological target: hGLP-1R (Homo sapiens, UniProt P43220); experiment: Functional cAMP formation (HTRF) in HEK-293 clonal cells expressing hGLP-1R, 0.1% bovine casein, without or with 1.0% human serum albumin; type: cell-based; design: expressed in transfected cells; conditions: for Emax: read-out: hGLP-1R Emax, % ± SEM; for EC50: cAMP, 0.1% bovine casein (no human serum albumin), geometric mean
Method in brief: as §1

[4] = biological target: T3, hGCGR (Homo sapiens, UniProt P47871); experiment: Functional cAMP formation (HTRF) in HEK-293 clonal cells expressing hGCGR, 0.1% bovine casein, without or with 1.0% human serum albumin; type: cell-based
T3 construct: expressed in transfected cells
Method in brief: as §1

[5] = human GIPR, geometric mean (SEM, n), read-out: Binding Affinity Ki, nM (SEM, n) hGIPR

T3 sequence (P47871 26-477): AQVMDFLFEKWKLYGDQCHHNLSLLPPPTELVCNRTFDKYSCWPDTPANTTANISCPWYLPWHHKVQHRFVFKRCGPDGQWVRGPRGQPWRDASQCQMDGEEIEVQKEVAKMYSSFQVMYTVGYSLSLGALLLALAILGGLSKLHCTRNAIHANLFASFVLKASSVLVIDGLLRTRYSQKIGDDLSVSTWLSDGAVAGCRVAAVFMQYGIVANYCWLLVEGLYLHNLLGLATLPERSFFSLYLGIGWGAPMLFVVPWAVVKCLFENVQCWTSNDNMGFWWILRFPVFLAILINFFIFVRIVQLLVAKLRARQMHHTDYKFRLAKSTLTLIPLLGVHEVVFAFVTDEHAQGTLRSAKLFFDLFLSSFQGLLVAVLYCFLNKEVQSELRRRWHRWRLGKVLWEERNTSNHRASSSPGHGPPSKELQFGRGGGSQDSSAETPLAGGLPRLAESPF
Chain of hGLP-1R (P43220 24-463): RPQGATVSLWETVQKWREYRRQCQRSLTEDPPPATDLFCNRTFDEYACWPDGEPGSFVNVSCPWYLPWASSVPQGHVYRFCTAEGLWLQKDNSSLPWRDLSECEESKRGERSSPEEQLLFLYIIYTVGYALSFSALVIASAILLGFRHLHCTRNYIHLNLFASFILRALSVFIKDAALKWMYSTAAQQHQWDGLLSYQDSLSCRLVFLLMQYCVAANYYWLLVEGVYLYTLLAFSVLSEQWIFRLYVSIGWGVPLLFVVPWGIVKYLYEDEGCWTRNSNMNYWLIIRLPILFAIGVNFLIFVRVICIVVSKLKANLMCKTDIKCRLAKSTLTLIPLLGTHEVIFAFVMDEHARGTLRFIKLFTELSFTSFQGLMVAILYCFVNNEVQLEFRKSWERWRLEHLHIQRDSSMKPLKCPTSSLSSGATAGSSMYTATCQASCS

`CCCC[C@H](NC(=O)[C@H](CC(=O)O)NC(=O)[C@H](CO)NC(=O)[C@@H](NC(=O)[C@](C)(Cc1ccccc1F)NC(=O)[C@@H](NC(=O)CNC(=O)[C@H](CCC(=O)O)NC(=O)C(C)(C)NC(=O)[C@@H](N)Cc1ccc(O)cc1)[C@@H](C)O)[C@@H](C)O)C(=O)N[C@@H](CO)C(=O)N[C@H](C(=O)N[C@@](C)(CC(C)C)C(=O)N[C@@H](CC(C)C)C(=O)N[C@@H](CC(=O)O)C(=O)N[C@@H](CCCN)C(=O)N[C@@H](CCCCNC(=O)COCCOCCNC(=O)COCCOCCNC(=O)CC[C@H](NC(=O)CCCCCCCCCCCCC(=O)O)C(=O)O)C(=O)N[C@@H](C)C(=O)N[C@@H](CCC(N)=O)C(=O)NC(C)(C)C(=O)N[C@@H](CCC(=O)O)C(=O)N[C@@H](Cc1ccccc1)C(=O)N[C@H](C(=O)N[C@H](CCC(=O)O)C(=O)N[C@@](C)(Cc1ccc(O)cc1)C(=O)N[C@@H](CC(C)C)C(=O)N[C@H](C(=O)N[C@@H](CCC(=O)O)C(=O)NCC(=O)NCC(=O)N[C@@H](CCCCNC(=O)COCCOCCNC(=O)COCCOCCNC(=O)CC[C@H](NC(=O)CCCCCCCCCCCCC(=O)O)C(=O)O)C(=O)N[C@@H](CO)C(=O)N[C@@H](CO)C(=O)NCC(=O)N[C@@H](C)C(=O)N1CCC[C@H]1C(=O)N1CCC[C@H]1C(=O)N1CCC[C@H]1C(=O)N[C@@H](CO)C(N)=O)[C@@H](C)CC)[C@@H](C)CC)[C@@H](C)CC` [Example 60] was tested, and the Ki [1, 5] was 0.11 nM, the EC50 ([2]; 0.1% bovine casein and 1.0% human serum albumin, 37° C., read-out: hGIPR EC50, nM (SEM, n)) was 1.2 nM and the Emax ([2]; HEK293, 0.1% bovine casein and 1.0% human serum albumin, 37° C., percent of maximal response to GIP(1-42)NH2, read-out: hGIPR Emax, % ± SEM) was 89.4 ± 4.57%. For the same molecule, the Emax ([2]; HEK293, percent of maximal response to GIP(1-42)NH2, 37° C., 0.1% bovine casein, arithmetic mean, read-out: hGIPR Emax, % ± SEM) was 94 ± 6.07%, the Emax ([3]; HEK293, 0.1% bovine casein and 1.0% human serum albumin, 37° C., percent of maximal response to GLP-1(7-36)NH2) was 111 ± 3.97% and the Emax ([3]; HEK293, percent of maximal response to GLP-1(7-36)NH2, 37° C., 0.1% bovine casein, arithmetic mean) was 97.2 ± 4.28%. The EC50 ([3]; incubated at 37° C., read-out: hGLP-1R EC50, nM (SEM, n)) was 0.19 nM, the EC50 ([4]; 0.1% bovine casein and 1.0% human serum albumin, 37° C., geometric mean, read-out: hGCGR EC50, nM (SEM, n)) was > 9950 nM and the EC50 ([4]; cAMP, incubated at 37° C., 0.1% bovine casein (no human serum albumin), geometric mean, read-out: hGCGR EC50, nM (SEM, n)) was > 9950 nM.
For `CC[C@H](C)[C@H](NC(=O)[C@H](CC(C)C)NC(=O)[C@](C)(Cc1ccc(O)cc1)NC(=O)[C@H](CCCCNC(=O)COCCOCCNC(=O)COCCOCCNC(=O)CC[C@H](NC(=O)CCCCCCCCCOc1ccc(C(=O)O)cc1)C(=O)O)NC(=O)[C@@H](NC(=O)[C@H](Cc1ccccc1)NC(=O)[C@H](CCC(=O)O)NC(=O)C(C)(C)NC(=O)[C@H](CCC(N)=O)NC(=O)[C@H](C)NC(=O)[C@H](CCC(N)=O)NC(=O)[C@H](CCCN)NC(=O)[C@H](CC(=O)O)NC(=O)[C@H](CC(C)C)NC(=O)[C@](C)(CC(C)C)NC(=O)[C@@H](NC(=O)C(C)(C)NC(=O)[C@H](Cc1ccncc1)NC(=O)[C@H](CC(=O)O)NC(=O)[C@H](CO)NC(=O)[C@@H](NC(=O)[C@](C)(Cc1ccccc1F)NC(=O)[C@@H](NC(=O)CNC(=O)[C@H](CCC(=O)O)NC(=O)C(C)(C)NC(=O)[C@@H](N)Cc1ccc(O)cc1)[C@@H](C)O)[C@@H](C)O)[C@@H](C)CC)[C@@H](C)CC)C(=O)N[C@@H](CCCCNC(=O)COCCOCCNC(=O)COCCOCCNC(=O)CC[C@H](NC(=O)CCCCCCCCCOc1ccc(C(=O)O)cc1)C(=O)O)C(=O)NCC(=O)NCC(=O)N1CCC[C@H]1C(=O)N[C@@H](CO)C(=O)N[C@@H](CO)C(=O)NCC(=O)N[C@@H](C)C(=O)N1CCC[C@H]1C(=O)N1CCC[C@H]1C(=O)N1CCC[C@H]1C(=O)N[C@@H](CO)C(N)=O` [Example 403], the Ki [1] was 0.0375 nM, the Emax ([2]; HEK293, read-out: hGIPR Emax, % ± SEM, cAMP, 37° C., 0.1% bovine casein and 1.0% human serum albumin, percent of maximal response to GIP(1-42)NH2) was 91.7% and the Emax ([2]; HEK293, read-out: hGIPR Emax, % ± SEM, cAMP, 37° C., 0.1% bovine casein, percent of maximal response to GIP(1-42)NH2, arithmetic mean) was 98.1%. For the same molecule, the EC50 ([2]; hGIPR EC50, nM (SEM, n), cAMP, 37° C., 0.1% bovine casein (no human serum albumin)) was 0.00939 nM, the EC50 ([3]; hGLP-1R EC50, nM (SEM, n), 37° C.) was 0.175 nM and the EC50 ([4]; hGCGR EC50, nM (SEM, n), cAMP, 37° C., 0.1% bovine casein (no human serum albumin), geometric mean) was > 9950 nM. For the same molecule, the EC50 ([4]; hGCGR EC50, nM (SEM, n), cAMP, 37° C., 0.1% bovine casein and 1.0% human serum albumin, geometric mean (SEM, n)) was > 9950 nM.
`CCCCCCCCCCCC(=O)N[C@@H](CCC(=O)NCCOCCOCC(=O)NCCOCCOCC(=O)NCCCC[C@H](NC(=O)[C@H](CCCN)NC(=O)[C@H](CC(=O)O)NC(=O)[C@H](CC(C)C)NC(=O)[C@](C)(CC(C)C)NC(=O)[C@@H](NC(=O)C(C)(C)NC(=O)[C@H](Cc1ccncc1)NC(=O)[C@H](CC(=O)O)NC(=O)[C@H](CO)NC(=O)[C@@H](NC(=O)[C@](C)(Cc1ccccc1F)NC(=O)[C@@H](NC(=O)CNC(=O)[C@H](CCC(=O)O)NC(=O)C(C)(C)NC(=O)[C@@H](N)Cc1ccc(O)cc1)[C@@H](C)O)[C@@H](C)O)[C@@H](C)CC)C(=O)N[C@@H](C)C(=O)N[C@@H](CCC(N)=O)C(=O)NC(C)(C)C(=O)N[C@@H](CCC(=O)O)C(=O)N[C@@H](Cc1ccccc1)C(=O)N[C@H](C(=O)N[C@H](CCC(=O)O)C(=O)N[C@@](C)(Cc1ccc(O)cc1)C(=O)N[C@@H](CC(C)C)C(=O)N[C@H](C(=O)N[C@@H](CCCCNC(=O)COCCOCCNC(=O)COCCOCCNC(=O)CC[C@H](NC(=O)CCCCCCCCCCC)C(=O)O)C(=O)NCC(=O)NCC(=O)N1CCC[C@H]1C(=O)N[C@@H](CO)C(=O)N[C@@H](CO)C(=O)NCC(=O)N[C@@H](C)C(=O)N1CCC[C@H]1C(=O)N1CCC[C@H]1C(=O)N1CCC[C@H]1C(=O)N[C@@H](CO)C(N)=O)[C@@H](C)CC)[C@@H](C)CC)C(=O)O` [Example 334] gave a Ki [1, 5] of 0.0195 nM, an Emax ([2]; HEK293, cAMP, 37° C., 0.1% bovine casein and 1.0% human serum albumin, percent of maximal response to GIP(1-42)NH2, read-out: hGIPR Emax, % ± SEM) of 89% and an EC50 ([2]; cAMP, 37° C., 0.1% bovine casein (no human serum albumin), read-out: hGIPR EC50, nM (SEM, n)) of 0.00987 nM. The Emax ([3]; HEK293, cAMP, 37° C., 0.1% bovine casein and 1.0% human serum albumin, percent of maximal response to GLP-1(7-36)NH2) was 105%, the EC50 ([3]; 37° C., read-out: hGLP-1R EC50, nM (SEM, n)) was 0.131 nM and the EC50 ([4]; cAMP, 37° C., 0.1% bovine casein (no human serum albumin), geometric mean, read-out: hGCGR EC50, nM (SEM, n)) was > 9950 nM. For the same molecule, the EC50 ([4]; cAMP, 37° C., 0.1% bovine casein and 1.0% human serum albumin, geometric mean (SEM, n), read-out: hGCGR EC50, nM (SEM, n)) was > 9950 nM.
